# Assay results taken from patent US20250027130A1, “Nucleic Acid Synthesis and Sequencing Using Tethered Nucleoside Triphosphates” (The Regents of the University of California, priority 2022, published 2025).
# Test system: MaPylRS
# Experiment: Intact tRNA mass spectrometry: acylation of Ma-tRNA^Pyl by MaPylRS
# Assay type: biochemical, Methanomethylophilus alvus
# Conditions: MaPylRS 2.5 μM, Ma-tRNA^Pyl 25 μM, 37° C., 2 h; average of 3 technical replicates
smiles,measurement,value
CC(C)(C)OC(=O)NCCCCC(C(=O)O)C(=O)O [Substrate 16],Yield of diacylated Ma-tRNA^Pyl,0.0%
same,Yield of monoacylated Ma-tRNA^Pyl,0.25%
